Residues, ends and D or L forms follow the SMILES beside them. *: point of attachment. Cbz = O=C(OCc1ccccc1)*
Columns and labels:
[1] = system: p62, LC3bI/II, Ulk1; assay: Autophagy marker immunoblot in primary neurons; format: cell-based, mouse; details: 12 hours, DIV14 WT primary cortical neurons
Description: (§1) (FIG. 4A) (Top) Structure of azide-PEG24-epoxomicin handle to enable rapid conjugation of linkers to global proteasome inhibitor epoxomicin using Click chemistry. (Bottom) Structure of Neuroproteasome-specific inhibitor impermeant Biotin-PEG24-Epoxomicin (iBEp). (FIG. 4B) Assessing permeability of iBEp in primary neurons. […] Cytosolic (Cyto) and membrane (Mem) fractions were immunoblotted using indicated antibodies. (FIG. 4C) Proteasome catalytic activity of membrane (Mem) and cytosolic (Cyto) fractions of neurons treated with iBEp. […] Proteasome catalytic activity was assessed by monitoring degradation of Suc-LLVY-AMC; proteasome-dependent cleavage of the substrate increases AMC fluorescence. N=3 biological replicates. **** p<0.0001 by One-Way ANOVA. (FIG. 4D) Primary neurons treated with iBEp probed for autophagy markers. […] Lysates were immunoblotted using indicated antibodies against common autophagy markers. Quantification of p62, LC3b, and Ulk1 intensities normalized to Actin. […] (FIG. 4E) Schematic to analyze changes in sarkosyl-soluble and insoluble proteomes in response to neuroproteasome inhibition. […] Sarkosyl-soluble and insoluble fractions were labeled with Tandem Mass Tags (TMTpro) for quantitative mass spectrometry. (FIG. 4F) Differential enrichment of proteins in the sarkosyl-soluble fraction of neurons treated with iBEp versus DMSO was analyzed and plotted as log 2-fold change vs-log 10 (P-value). Green dots represent proteins enriched in the iBEp treatment compared to DMSO treatment. (FIG. 4G) Graphs plotting the log 2-fold change of select Neuroproteasome substrates enriched in the sarkosyl-soluble fraction from MS analysis in (FIG. 4F) compared to UPS substrates and autophagy markers ** p<0.01 (adjusted p-value after multiple corrections). (FIG. 4H) Differential enrichment of proteins in the sarkosyl-insoluble fraction of neurons treated with iBEp versus DMSO was analyzed and plotted as log 2-fold change vs −log 10 (P-value). Green dots represent proteins enriched in the iBEp treatment compared to DMSO treatment. (FIG. 4I) (Left) Identification of proteins which are exclusively enriched in the insoluble fraction with no corresponding change in the soluble fraction (red). Plk2 represents the only protein which is enriched in the soluble fraction with no corresponding change in the insoluble fraction (green). Proteins plotted as differences in log 2 fold changes. (Right) Graphs plotting the log 2 fold changes of insoluble Tau (top) and soluble Tau (bottom) enriched in neurons treated with iBEp vs DMSO. ** p<0.01 (adjusted p-value after multiple corrections).
FIG. 5A-5G: Neuroproteasomes are differentially regulated by ApoE isoforms to determine formation of endogenous sarkosyl-insoluble Tau inclusions. […]

[2] = system: endogenous mouse Tau; assay: Sarkosyl fractionation and Tau immunoblot, WT primary cortical neurons; format: cell-based; details: 1 μM, 12 hours, vs DMSO
Description: (§2) (FIG. 5A) Effect of neuroproteasome-specific inhibitor iBEp on Tau aggregation in primary neurons. […] Quantification of soluble and insoluble murine Tau (mTau) intensities normalized to soluble GAPDH. […] (FIG. 5B) Effect of neuroproteasome inhibition on aggregation of human Tau (hTau). […] (FIG. 5C) Generation of reversible neuroproteasome inhibitors to test effects of neuroproteasome inhibition. (Top) Structure of Sulfo-MG132 (SulfoMG). […] (FIG. 5D) Effect of reversible neuroproteasome inhibition using SulfoMG on Tau aggregation. […] Quantification of soluble and insoluble Tau intensities were normalized to soluble GAPDH. Data (right) are mean±SEM normalized respective to DMSO controls. […] (FIG. 5E) Testing iBEp permeability in vivo. […] 72 hours post injection, hippocampi were isolated and subjected to membrane fractionation without detergent. […] (FIG. 5F) Effect of neuroproteasome inhibition on Tau aggregation in vivo.

[3] = system: human Tau; assay: Sarkosyl fractionation and Tau immunoblot, hTau-KI primary cortical neurons; format: cell-based; details: 1 μM, 12 hours, vs DMSO
Description: as §2

[4] = system: Thioflavin S-positive aggregates; assay: Thioflavin S staining of hippocampal sections of hTau-KI mice after stereotactic injection; details: 72 hours
[5] = system: phosphorylated Tau; assay: Immunohistochemistry for phosphorylated Tau (AT8) in hTau-KI mice after stereotactic injection; details: 72 hours
[6] = target: T1, proteasome (Mus musculus, UniProt O55234+P70195+Q60692); assay: Covalent biotinylation of proteins in iBEp-treated neurons (SDS-PAGE biotin signal); format: cell-based
T1 construct: endogenous in cells
Description: (§3) We next tested the potency and selectivity of iBEp relative to Epoxomicin. Epoxomicin covalently and irreversibly binds the catalytic β subunits of the proteasome-therefore, the biotin moiety on iBEp serves as a tracer to detect whether proteasomes are inhibited by monitoring biotin signal on an SDS-PAGE gel (83, 87-89). […] This is supported by previous data that modification of the non-reactive end of epoxomicin has been shown not to change the selectivity of Epoxomicin for the proteasome (83, 87-89). […] We therefore chose doses of inhibitor where the effective concentration of the inhibitor was similar to previous studies using Epoxomicin alone and well within the acceptable range of efficacy given how potent Epoxomicin is as a proteasome inhibitor.

[7] = target: proteasome (Homo sapiens, UniProt P28072+P28074+Q99436); assay: Efficacy against the proteasome relative to the parent inhibitor; format: biochemical
Description: as §3
Many of our experiments rely on the use of iBEp because the biotin tracer on an irreversible and specific inhibitor allows us to track which proteasomes are inhibited. However, we wanted to validate our findings using a proteasome inhibitor with a distinct mechanism of action from Epoxomicin. We therefore modified MG132, a reversible peptide aldehyde proteasome inhibitor, with a sulfonated biotin linker on the nonreactive N-terminus (84). […] Instead, we turned to cellular and functional readouts of permeability. […]

[8] = system: primary cortical neurons; assay: Permeability of iBEp in primary cortical neurons: membrane fractionation and biotin blot; format: cell-based, mouse; details: 1 μM, 1, 6 and 24 hours, cytosolic vs membrane fraction
Description: (§4) (FIG. 4A) (Top) Structure of azide-PEG24-epoxomicin handle to enable rapid conjugation of linkers to global proteasome inhibitor epoxomicin using Click chemistry. (Bottom) Structure of Neuroproteasome-specific inhibitor impermeant Biotin-PEG24-Epoxomicin (iBEp). (FIG. 4B) Assessing permeability of iBEp in primary neurons. […] Cytosolic (Cyto) and membrane (Mem) fractions were immunoblotted using indicated antibodies. (FIG. 4C) Proteasome catalytic activity of membrane (Mem) and cytosolic (Cyto) fractions of neurons treated with iBEp. […] Proteasome catalytic activity was assessed by monitoring degradation of Suc-LLVY-AMC; proteasome-dependent cleavage of the substrate increases AMC fluorescence. N=3 biological replicates. **** p<0.0001 by One-Way ANOVA. (FIG. 4D) Primary neurons treated with iBEp probed for autophagy markers. […] Quantification of p62, LC3b, and Ulk1 intensities normalized to Actin. […] Sarkosyl-soluble and insoluble fractions were labeled with Tandem Mass Tags (TMTpro) for quantitative mass spectrometry. (FIG. 4F) Differential enrichment of proteins in the sarkosyl-soluble fraction of neurons treated with iBEp versus DMSO was analyzed and plotted as log 2-fold change vs-log 10 (P-value). […] (FIG. 4H) Differential enrichment of proteins in the sarkosyl-insoluble fraction of neurons treated with iBEp versus DMSO was analyzed and plotted as log 2-fold change vs −log 10 (P-value). […]

[9] = target: T2, neuroproteasomes (Mus musculus, UniProt O55234+P70195+Q60692); assay: Suc-LLVY-AMC proteasome activity, membrane fraction of iBEp-treated neurons; format: cell-based; details: 6 hours, DIV14 neurons, vs DMSO
T2 construct: endogenous in cells; host or cells: primary cortical neurons from WT mice (DIV13-14); membrane and cytosolic fractions
Description: as §4

[10] = target: T3, cytosolic proteasomes (Mus musculus, UniProt O55234+P70195+Q60692); assay: Suc-LLVY-AMC proteasome activity, cytosolic fraction of iBEp-treated neurons; format: cell-based; details: 6 hours, DIV14 neurons, vs DMSO
T3 construct: endogenous in cells; host or cells: primary cortical neurons from WT mice (DIV13-14); membrane and cytosolic fractions
Description: as §4

[11] = system: primary cortical neurons; assay: Quantitative TMT proteomics of sarkosyl-soluble and sarkosyl-insoluble fractions; format: cell-based, mouse; details: 1 and 6 hours
Description: as §1, with “(FIG. 4I) (Left) Identification of proteins which are exclusively enriched in the insoluble fraction with no corresponding change in the soluble fraction (red). Plk2 represents the only protein which is enriched in the soluble fraction with no corresponding change in the insoluble fraction (green). Proteins plotted as differences in log 2 fold changes. (Right) Graphs plotting the log 2 fold changes of insoluble Tau (top) and soluble Tau (bottom) enriched in neurons treated with iBEp vs DMSO. ** p<0.01 (adjusted p-value after multiple corrections).” left out

[12] = iBEp permeability in vivo: stereotactic CA1 injection and membrane fractionation; parameters: species or system mouse; details: stereotactic injection into CA1, 72 hours
[13] = system: Tau; assay: Sarkosyl-insoluble Tau in hippocampus of hTau-KI mice after stereotactic injection; format: in vivo, mouse; details: 6.4 μM iBEp stereotactic, contralateral vehicle, 72 hours
[14] = system: Tau; assay: iBEp dose range in hTau/ApoE double KI primary neurons, sarkosyl-insoluble Tau; format: cell-based, mouse
[15] = system: Tau; assay: Quantitative TMT phosphoproteomics of Tau in iBEp-treated WT neurons; format: cell-based, mouse; details: 1 μM, 1, 6 or 24 hours, WT primary neurons
Description: We noticed that neuroproteasome inhibition induces the shift of sarkosyl-insoluble Tau into a species which migrates at a higher molecular weight on an SDS-PAGE gel, at approximately 64 kDa (FIG. 5A, FIG. 5B, FIG. 5D, FIG. 5F, FIG. 5G). Similar shifts in molecular weight of Tau are observed in the AD brain and is a hallmark phenotype of multiple neurodegenerative disorders (109, 110). This molecular weight shift can in part be due to Tau phosphorylation at many residues. Therefore, we wanted to address whether iBEp-induced Tau aggregates are phosphorylated. Rather than profiling by a panel of phospho-specific antibodies against Tau, we took a more unbiased approach and measured Tau phosphorylation by quantitative phosphoproteomics. We treated primary WT neurons with iBEp for either 1, 6, or 24 hours and then performed sarkosyl fractionations.

[16] = system: phosphorylated Tau; assay: Immunocytochemistry for phosphorylated Tau (CP13) in hTau-KI hippocampal neurons; format: cell-based, mouse; details: 12 hours, primary hippocampal hTau-KI neurons, vs controls
[17] = system: newly synthesized Tau; assay: Puro-PLA-Tau: proximity ligation with puromycylation for newly synthesized Tau; format: cell-based
Description: Analysis was done blinded to experimental condition. […] Scale bar=100 μm (right).

[18] = dose range 1000-1.6 nM, hTau/ApoE double KI neurons

CC[C@H](C)[C@H](NC(=O)[C@H]([C@@H](C)CC)N(C)C(C)=O)C(=O)N[C@H](C(=O)N[C@@H](CC(C)C)C(=O)[C@@]1(C)CO1)[C@@H](C)O [Epoxomicin, reference compound]
LC3bI/II [1]: little to no change in LC3bI/II
p62 levels [1]: strong induction of p62
sarkosyl-insoluble Tau, WT neurons [2]: no change in sarkosyl-insoluble Tau
sarkosyl-insoluble Tau, hTau-KI neurons [3]: no change in sarkosyl-insoluble Tau

CC(C)C[C@@H](C=O)NC(=O)[C@H](CC(C)C)NC(=O)[C@H](CC(C)C)NC(=O)OCc1ccccc1 [MG132, reference compound] (Cbz-Leu-Leu-Leu-aldehyde)
sarkosyl-insoluble Tau, hTau-KI neurons [3]: does not affect the sarkosyl-insoluble accumulation of Tau

C[C@@H]1C[C@@H]([C@H](O)CC2CC(=O)NC(=O)C2)C(=O)[C@@H](C)C1 [cycloheximide, reference compound]
ThioS+ staining, co-injection with iBEp vs iBEp alone ([4]; hTau-KI mice, stereotactic): complete return to baseline of ThioS+ staining
AT8 staining, co-injection with iBEp vs contralateral iBEp alone ([5]; hTau-KI mice, stereotactic): completely eliminated AT8 staining

CC[C@H](C)[C@H](NC(=O)CCOCCOCCOCCOCCOCCOCCOCCOCCOCCOCCOCCOCCOCCOCCOCCOCCOCCOCCOCCOCCOCCOCCOCCOCCn1cc(COCCOCCOCCOCCNC(=O)CCCC[C@@H]2SC[C@@H]3NC(=O)N[C@@H]32)nn1)C(=O)N[C@H](C(=O)N[C@H](C(=O)N[C@@H](CC(C)C)C(=O)[C@@]1(C)CO1)[C@@H](C)O)[C@@H](C)CC [iBEp, Biotin-PEG24-Epoxomicin]
proteins covalently biotinylated in treated neurons (specificity) [6]: covalent biotinylation of only three proteins
efficacy against the proteasome relative to the parent inhibitor [7]: moderately reduces the efficacy of iBEp relative to Epoxomicin
location of the biotin signal of covalent proteasome inhibition (permeability) [8]: only in the membrane fraction, and not in the cytosol
proteasome activity in the membrane fraction [9]: almost entirely abrogated
cytosolic proteasome activity [10]: remains completely intact
LC3bI/II [1]: no change in either p62 or LC3bI/II levels
p62 levels [1]: no change in either p62 or LC3bI/II levels
cell penetration judged from proteomics (no UPS substrates or autophagy markers accumulate) ([11]; DIV12-14 primary cortical neurons): does not detectably penetrate cells
number of proteins increasing in the soluble fraction ([11]; vs DMSO): over 250 proteins
number of proteins that become sarkosyl-insoluble ([11]; vs DMSO): 52 proteins
sarkosyl-insoluble Tau, WT neurons [2]: significant increase in sarkosyl-insoluble Tau
sarkosyl-insoluble Tau, hTau-KI neurons [3]: significant increase in sarkosyl-insoluble Tau
injected concentration at which penetration into the cytosol is observed [12]: 64 µM
sarkosyl-insoluble Tau in hippocampi of hTau-KI mice [13]: strong increase of sarkosyl-insoluble Tau
sarkosyl-insoluble Tau in hTau/E4-dKI neurons at the lowest dose ([14]; dose range 1000, 200, 40, 8 and 1.6 nM): accumulation of sarkosyl-insoluble Tau in hTau/E4-dKI neurons
susceptibility to Tau aggregation, E4 neurons vs E3 neurons (more susceptible) [14, 18]: over 25 fold
susceptibility to Tau aggregation, hTau/E2-dKI vs hTau/E3-dKI neurons (less susceptible) [14, 18]: over 10 fold
Tau phosphorylation sites (human S202, T205, T217, S404) [15]: time-dependent increase in Tau phosphorylation at only 4 of 26 identified sites
CP13 (phosphorylated S202 Tau) signal [16]: significant elevation of CP13 signal
increase in Puro-PLA-Tau signal relative to DMSO ([17]; DIV14 primary hippocampal neurons, puromycin 10 minutes): ~3.5 fold
newly synthesized Tau puncta greater than 24 nm in diameter ([17]; normalized to puncta number per size bin with DMSO): over twofold increase
ThioS staining in the CA1 region of hippocampi ([4]; stereotactic injection, vs vehicle): strong increase in ThioS staining
phosphorylated Tau (AT8) signal in injected hippocampi ([5]; stereotactic injection, vs contralateral control): threefold induction of phosphorylated Tau signal

Sulfo-MG132 [SulfoMG]
efficacy against the proteasome relative to the parent inhibitor [7]: significant inhibition of proteasomes using SulfoMG despite the moderate loss of efficacy compared to MG132
sarkosyl-insoluble Tau, hTau-KI neurons [3]: induces similar partitioning of hTau into the sarkosyl-insoluble fraction as iBEp

— US20250281564A1, “DYSREGULATION OF NEUROPROTEASOMES BY APOE ISOFORMS DRIVES ENDOGENOUS TAU AGGREGATION” (The Trustees of Columbia University in the City of New York, priority 2022, published 2025)
